Measurements: PMC5424463, “A strategy based on nucleotide specificity leads to a subfamily-selective and cell-active inhibitor of N ^6-methyladenosine demethylase FTO” (Chemical Science, 2014)
Several values for one entry are separate records, joined by “and”; a condition that tells them apart may be missing. Identical values can stand only once.

How the values were obtained:
ALKBH3 = target: T1, ALKBH3 (Homo sapiens, UniProt Q96Q83); test: Differential scanning fluorimetry (DSF)-based binding assay, ALKBH3; settings: DSF, 100 μM compound, 2 μM protein, 50 μM MnCl2; read-out: Tm shift (ALKBH3)
T1 construct: Human ALKBH3 (encompassing residues 1- 286); purchased ProSpec-Tany Technogene Ltd, Israel
T1 sequence (Q96Q83 1-286): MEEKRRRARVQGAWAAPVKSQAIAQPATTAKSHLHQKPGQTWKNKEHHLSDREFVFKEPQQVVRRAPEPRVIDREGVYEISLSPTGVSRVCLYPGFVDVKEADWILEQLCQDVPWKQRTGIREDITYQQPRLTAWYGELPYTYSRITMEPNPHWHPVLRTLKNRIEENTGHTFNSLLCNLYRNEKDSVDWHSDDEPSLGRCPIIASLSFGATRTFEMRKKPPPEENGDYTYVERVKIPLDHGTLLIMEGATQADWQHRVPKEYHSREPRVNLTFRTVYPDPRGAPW
Method: (§1) Superdex-200 column (GE Healthcare) pre-equilibrated with 20 mM HEPES, pH 7.5, 300 mM NaCl, 10% (v/v) glycerol, 0.5 mM TCEP. […]
(§2) Differential scanning fluorimetry (DSF)-based binding assay
(§3) DSF-based binding assay was performed using a MiniOpticon™ Real-Time PCR Detection System (Bio-Rad), monitoring protein unfolding using SYPRO orange (Invitrogen) according to the reported method.[16] FAM (492 nm) and ROX (610 nm) filters were used for excitation and emission respectively. Reaction mixes contained 2 μM protein, 50 μM MnCl2, 100 μM compounds, 5x SYPRO orange in a final volume of 50 μl. Reagents were prepared in 50mM HEPES buffer, pH 7.5 except metals, which were dissolved as 100 mM stocks in 20 mM HCl, then further diluted in MilliQ water. Compounds tested were prepared in 100% DMSO and added such that the final concentration of DMSO was not more than 1% v/v of assay […]
(§4) mix. Fluorescence readings were taken every 1°C in the range 25-95°C, with the temperature increased linearly by 1°C min -1. The software provided was used to perform global minimum subtraction. The inflection point, representing Tm, was calculated by fitting the Boltzmann equation to the sigmoidal curves obtained; data were processed using GraphPad Prism 6.0™.
(§5) The Tm shift caused by the addition of small molecules/ fragments was determined by subtraction of the “reference” Tm (protein incubated with metal and 1% v/v DMSO) from the Tm obtained in the presence of the compound. The assay was performed in triplicate for each inhibitor, with standard deviations typically < 1°C. […]

AlkB = target: T2, AlkB (Escherichia coli, UniProt P05050); test: Differential scanning fluorimetry (DSF)-based binding assay, AlkB; settings: 100 μM compound, 2 μM protein, 50 μM MnCl2, read-out: Tm shift (AlkB)
T2 construct: made in house; host or cells: E. coli BL21 (DE3) Rosetta T1R
Method: as §1, §2, §3, §4, §5

ALKBH2 [1] = target: T3, ALKBH2 (Homo sapiens, UniProt Q6NS38); test: Differential scanning fluorimetry (DSF)-based binding assay, ALKBH2; settings: DSF, 100 μM compound, 2 μM protein, 50 μM MnCl2; read-out: Tm shift (ALKBH2)
T3 construct: made in house; host or cells: E. coli BL21 (DE3)
T3 sequence (Q6NS38 56-258): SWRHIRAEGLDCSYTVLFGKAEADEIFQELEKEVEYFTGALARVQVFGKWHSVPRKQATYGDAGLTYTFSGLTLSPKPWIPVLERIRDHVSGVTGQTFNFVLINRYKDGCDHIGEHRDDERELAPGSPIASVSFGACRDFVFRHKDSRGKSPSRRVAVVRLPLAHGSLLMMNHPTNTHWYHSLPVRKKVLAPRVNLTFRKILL
Method: as §1, §2, §3, §4, §5

ALKBH5 = target: T4, ALKBH5 (Homo sapiens, UniProt Q6P6C2); test: Differential scanning fluorimetry (DSF)-based binding assay, ALKBH5; settings: 100 μM compound, 2 μM protein, 50 μM MnCl2, read-out: Tm shift (ALKBH5)
T4 construct: pNIC28-Bsa4 ALKBH5 (encompassing residues 66-292); made in house; host or cells: E. coli BL21 (DE3) Rosetta T1R
Method: as §1, §2
DSF-based binding assay was performed using a MiniOpticon™ Real-Time PCR Detection System (Bio-Rad), monitoring protein unfolding using SYPRO orange (Invitrogen) according […]
to the reported method.[16] […]
and emission respectively. Reaction mixes contained 2 μM protein, 50 μM MnCl2, 100 μM […]
Reagents were prepared in 50mM
HEPES buffer, pH 7.5 except metals, which were dissolved as 100 mM stocks in 20 mM HCl, then further diluted in MilliQ water. Compounds tested were prepared in 100% DMSO and added such that the final concentration of DMSO was not more than 1% v/v of assay […]
increased linearly by 1°C min -1. The software provided was used to perform global minimum subtraction. The inflection point, representing Tm, was calculated by fitting the Boltzmann equation to the sigmoidal curves obtained; data were processed using GraphPad Prism 6.0™.
The Tm shift caused by the addition of small molecules/ fragments was determined by subtraction of the “reference” Tm (protein incubated with metal and 1% v/v DMSO) from the Tm obtained in the presence of the compound. […]

ALKBH2 [2] = target: T3, ALKBH2; test: HPLC-based inhibition assay for ALKBH2, m1A-ssDNA substrate; assay type: biochemical
Method: HPLC-based inhibition assays for AlkB and ALKBH2
The assay was modified from previously reported method.[18] A 15-mer m1A-ssDNA substrate with the sequence 5’-AAAGCAG(m1A)ATTCGAA-3 ’ (Yale University, W.M.
Keck Foundation Biotechnology Resource Laboratory) was used in this inhibition assay. The assay was performed in triplicate for each inhibitor, in a final reaction volume of 25 µL.
Reaction consisted of AlkB (1 µM) or ALKBH2 (2 µM), 2OG (50 µM), (NH4)2Fe(SO4)2·6H2O (50 µM), L-ascorbate (2 mM), m1A-ssDNA substrate (10 µM), in 50 mM HEPES buffer, pH 7.5, and inhibitor at various concentrations (final DMSO concentration not more than 1% v/v of assay mix). The reaction was incubated at 4°C for 10 min, before analysis on a bio-inert HPLC system. The m1A-ssDNA substrate and the corresponding demethylated product were separated using a Dionex DNAPac PA200 anion-exchange column (8 µm, […]) with a gradient of 98% solvent A (50 mM sodium citrate buffer, pH 5.5) to 65% solvent B (50 mM sodium citrate buffer, pH 5.5 with 1.25 M sodium chloride) over 18 min, at a flow rate of 1 mL/min at 40°C. The UV detection wavelength was set at 266 nm. The percentage inhibition was estimated based on the peak areas of the m1A-ssDNA substrate and the corresponding demethylated product. For IC50 determination, eight different concentrations of inhibitors were used (0, 1, 3, 10, 30, 100, 300, […]
different inhibitor concentrations, using nonlinear regression, with normalized dose-response fit on GraphPad Prism 6.0™. […]

T2 sequence (P05050 12-216): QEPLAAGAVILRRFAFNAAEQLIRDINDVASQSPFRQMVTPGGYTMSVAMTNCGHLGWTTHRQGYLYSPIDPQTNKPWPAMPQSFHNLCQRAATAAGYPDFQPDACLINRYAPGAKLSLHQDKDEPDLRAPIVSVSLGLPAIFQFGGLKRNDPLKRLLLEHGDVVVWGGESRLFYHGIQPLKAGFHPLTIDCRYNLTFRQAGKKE
T4 sequence (Q6P6C2 66-292): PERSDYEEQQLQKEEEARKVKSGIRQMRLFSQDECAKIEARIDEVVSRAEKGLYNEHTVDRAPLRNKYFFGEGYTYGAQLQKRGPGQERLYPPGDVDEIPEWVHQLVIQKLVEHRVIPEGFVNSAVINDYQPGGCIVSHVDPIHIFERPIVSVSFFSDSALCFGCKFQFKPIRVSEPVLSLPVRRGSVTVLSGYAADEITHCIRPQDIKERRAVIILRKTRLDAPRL

SMILES | ΔTm at 100 µM (ALKBH3) [°C] | ΔTm at 100 µM (AlkB) [°C] | ΔTm at 100 µM (ALKBH2 [1]) [°C] | ΔTm at 100 µM (ALKBH5) [°C] | IC50 (ALKBH2 [2])
O=C(O)/C=C/C(=O)NNC(=O)c1cnccc1Cc1ccccc1 [Compound 12] | 3.2 | 4.5 | 4.9 | 2.7 | 25.9 µM
O=C(O)C=CC(=O)NNC(=O)c1cc(Cc2ccccc2)ccn1 [Compound 22] | 3.5 | 3.2 | 3.7 | 2.8 | 39.9 µM
O=C(O)/C=C/C(=O)NNC(=O)c1cccnc1 [Compound 21] | 2.5 | 1.8 | 2 | 2.1 | 152 µM and > 100 µM
O=C(O)/C=C/C(=O)NNC(=O)c1ccccn1 [Compound 23] | 2 | 1.5 | 2.3 | 2.1 | 127 µM
